Tests used:
Assay in all cases: KINOMEscan assay (Eurofins DiscoverX)
Type in all cases: binding
kinome (kinase panel) [1] = target: T1, kinome (kinase panel) (Homo sapiens, UniProt O00444); settings: PLK4; 1000 nM; read-out: Percent Control
T1 construct: purchased Eurofins DiscoverX

kinome (kinase panel) [2] = target: T2, kinome (kinase panel) (Homo sapiens, UniProt O14578); settings: CIT; 1000 nM; read-out: Percent Control
T2 construct: purchased Eurofins DiscoverX

kinome (kinase panel) [3] = target: T3, kinome (kinase panel) (Homo sapiens, UniProt O43683); settings: BUB1; 1000 nM; read-out: Percent Control
T3 construct: purchased Eurofins DiscoverX

kinome (kinase panel) [4] = target: T4, kinome (kinase panel) (Homo sapiens, UniProt O75747); settings: PIK3C2G; 1000 nM; read-out: Percent Control
T4 construct: purchased Eurofins DiscoverX

kinome (kinase panel) [5] = target: T5, kinome (kinase panel) (Homo sapiens, UniProt O95835); settings: LATS1; 1000 nM; read-out: Percent Control
T5 construct: purchased Eurofins DiscoverX

kinome (kinase panel) [6] = target: T6, kinome (kinase panel) (Homo sapiens, UniProt P00533, L861Q); settings: […]; 1000 nM; read-out: Percent Control
T6 construct: purchased Eurofins DiscoverX

kinome (kinase panel) [7] = target: T7, kinome (kinase panel) (Homo sapiens, UniProt P04049); settings: RAF1; 1000 nM; read-out: Percent Control
T7 construct: purchased Eurofins DiscoverX

kinome (kinase panel) [8] = target: T8, kinome (kinase panel) (Homo sapiens, UniProt P10721, D816V); settings: […]; 1000 nM; read-out: Percent Control
T8 construct: purchased Eurofins DiscoverX

kinome (kinase panel) [9] = target: T9, kinome (kinase panel) (Homo sapiens, UniProt P20794); settings: MAK; 1000 nM; read-out: Percent Control
T9 construct: purchased Eurofins DiscoverX

kinome (kinase panel) [10] = target: T10, kinome (kinase panel) (Homo sapiens, UniProt P24941); settings: CDK2; 1000 nM; read-out: Percent Control
T10 construct: purchased Eurofins DiscoverX

kinome (kinase panel) [11] = target: T11, kinome (kinase panel) (Homo sapiens, UniProt P42338); settings: PIK3CB; 1000 nM; read-out: Percent Control
T11 construct: purchased Eurofins DiscoverX

kinome (kinase panel) [12] = target: T12, kinome (kinase panel) (Homo sapiens, UniProt P43403); settings: ZAP70; 1000 nM; read-out: Percent Control
T12 construct: purchased Eurofins DiscoverX

kinome (kinase panel) [13] = target: T13, kinome (kinase panel) (Homo sapiens, UniProt P49336); settings: CDK8; 1000 nM; read-out: Percent Control
T13 construct: purchased Eurofins DiscoverX

kinome (kinase panel) [14] = target: T14, kinome (kinase panel) (Homo sapiens, UniProt P51957); settings: NEK4; 1000 nM; read-out: Percent Control
T14 construct: purchased Eurofins DiscoverX

kinome (kinase panel) [15] = target: T15, kinome (kinase panel) (Homo sapiens, UniProt P53667); settings: LIMK1; 1000 nM; read-out: Percent Control
T15 construct: purchased Eurofins DiscoverX

kinome (kinase panel) [16] = target: T16, kinome (kinase panel) (Homo sapiens, UniProt Q02763); settings: TIE2 (TEK); 1000 nM; read-out: Percent Control
T16 construct: purchased Eurofins DiscoverX

kinome (kinase panel) [17] = target: T17, kinome (kinase panel) (Homo sapiens, UniProt Q02779); settings: MLK2 (Entrez MAP3K10); 1000 nM; read-out: Percent Control
T17 construct: purchased Eurofins DiscoverX

kinome (kinase panel) [18] = target: T18, kinome (kinase panel) (Homo sapiens, UniProt Q04771); settings: ACVR1; 1000 nM; read-out: Percent Control
T18 construct: purchased Eurofins DiscoverX

kinome (kinase panel) [19] = target: T19, kinome (kinase panel) (Homo sapiens, UniProt Q13554); settings: CAMK2B; 1000 nM; read-out: Percent Control
T19 construct: purchased Eurofins DiscoverX

kinome (kinase panel) [20] = target: T20, kinome (kinase panel) (Homo sapiens, UniProt Q13882); settings: BRK (Entrez PTK6); 1000 nM; read-out: Percent Control
T20 construct: purchased Eurofins DiscoverX

kinome (kinase panel) [21] = target: T21, kinome (kinase panel) (Homo sapiens, UniProt Q56UN5); settings: YSK4 (MAP3K19); 1000 nM; read-out: Percent Control
T21 construct: purchased Eurofins DiscoverX

kinome (kinase panel) [22] = target: T22, kinome (kinase panel) (Homo sapiens, UniProt Q5S007); settings: LRRK2; 1000 nM; read-out: Percent Control
T22 construct: purchased Eurofins DiscoverX

kinome (kinase panel) [23] = target: T23, kinome (kinase panel) (Homo sapiens, UniProt Q6DT37); settings: DMPK2 (Entrez CDC42BPG); 1000 nM; read-out: Percent Control
T23 construct: purchased Eurofins DiscoverX

kinome (kinase panel) [24] = target: T24, kinome (kinase panel) (Homo sapiens, UniProt Q7KZI7); settings: MARK2; 1000 nM; read-out: Percent Control
T24 construct: purchased Eurofins DiscoverX

kinome (kinase panel) [25] = target: T25, kinome (kinase panel) (Homo sapiens, UniProt Q8IYT8); settings: ULK2; 1000 nM; read-out: Percent Control
T25 construct: purchased Eurofins DiscoverX

kinome (kinase panel) [26] = target: T26, kinome (kinase panel) (Homo sapiens, UniProt Q9BVS4); settings: RIOK2; 1000 nM; read-out: Percent Control
T26 construct: purchased Eurofins DiscoverX

kinome (kinase panel) [27] = target: T27, kinome (kinase panel) (Homo sapiens, UniProt Q9BX84); settings: TRPM6; 1000 nM; read-out: Percent Control
T27 construct: purchased Eurofins DiscoverX

kinome (kinase panel) [28] = target: T28, kinome (kinase panel) (Homo sapiens, UniProt Q9C098); settings: DCAMKL3 (Entrez DCLK3); 1000 nM; read-out: Percent Control
T28 construct: purchased Eurofins DiscoverX

kinome (kinase panel) [29] = target: T29, kinome (kinase panel) (Homo sapiens, UniProt Q9H2K8); settings: TAOK3; 1000 nM; read-out: Percent Control
T29 construct: purchased Eurofins DiscoverX

kinome (kinase panel) [30] = target: T30, kinome (kinase panel) (Homo sapiens, UniProt Q9HC98); settings: NEK6; 1000 nM; read-out: Percent Control
T30 construct: purchased Eurofins DiscoverX

kinome (kinase panel) [31] = target: T31, kinome (kinase panel) (Homo sapiens, UniProt Q9UIK4); settings: DAPK2; 1000 nM; read-out: Percent Control
T31 construct: purchased Eurofins DiscoverX

kinome (kinase panel) [32] = target: T32, kinome (kinase panel) (Homo sapiens, UniProt Q9UKE5); settings: TNIK; 1000 nM; read-out: Percent Control
T32 construct: purchased Eurofins DiscoverX

kinome (kinase panel) [33] = target: T33, kinome (kinase panel) (Homo sapiens, UniProt Q9UQB9); settings: AURKC; 1000 nM; read-out: Percent Control
T33 construct: purchased Eurofins DiscoverX

T7 sequence (P04049 whole entry): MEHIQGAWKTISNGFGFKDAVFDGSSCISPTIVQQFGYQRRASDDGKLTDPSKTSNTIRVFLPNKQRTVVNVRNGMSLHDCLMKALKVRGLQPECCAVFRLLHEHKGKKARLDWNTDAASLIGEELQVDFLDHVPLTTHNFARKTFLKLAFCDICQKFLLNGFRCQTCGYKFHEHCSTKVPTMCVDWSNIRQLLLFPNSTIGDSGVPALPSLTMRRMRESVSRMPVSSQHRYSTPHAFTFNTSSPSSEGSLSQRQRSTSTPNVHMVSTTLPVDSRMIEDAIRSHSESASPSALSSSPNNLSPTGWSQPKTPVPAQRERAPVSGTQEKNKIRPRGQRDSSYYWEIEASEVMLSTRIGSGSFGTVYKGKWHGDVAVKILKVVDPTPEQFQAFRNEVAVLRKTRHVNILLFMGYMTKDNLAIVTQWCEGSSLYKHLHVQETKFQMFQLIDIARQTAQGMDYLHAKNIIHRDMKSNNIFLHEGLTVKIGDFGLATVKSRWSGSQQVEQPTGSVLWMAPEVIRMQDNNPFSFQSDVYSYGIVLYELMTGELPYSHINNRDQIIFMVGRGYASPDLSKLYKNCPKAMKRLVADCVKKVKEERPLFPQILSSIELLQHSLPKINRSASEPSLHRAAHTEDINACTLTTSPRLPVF
T1 sequence (O00444 whole entry): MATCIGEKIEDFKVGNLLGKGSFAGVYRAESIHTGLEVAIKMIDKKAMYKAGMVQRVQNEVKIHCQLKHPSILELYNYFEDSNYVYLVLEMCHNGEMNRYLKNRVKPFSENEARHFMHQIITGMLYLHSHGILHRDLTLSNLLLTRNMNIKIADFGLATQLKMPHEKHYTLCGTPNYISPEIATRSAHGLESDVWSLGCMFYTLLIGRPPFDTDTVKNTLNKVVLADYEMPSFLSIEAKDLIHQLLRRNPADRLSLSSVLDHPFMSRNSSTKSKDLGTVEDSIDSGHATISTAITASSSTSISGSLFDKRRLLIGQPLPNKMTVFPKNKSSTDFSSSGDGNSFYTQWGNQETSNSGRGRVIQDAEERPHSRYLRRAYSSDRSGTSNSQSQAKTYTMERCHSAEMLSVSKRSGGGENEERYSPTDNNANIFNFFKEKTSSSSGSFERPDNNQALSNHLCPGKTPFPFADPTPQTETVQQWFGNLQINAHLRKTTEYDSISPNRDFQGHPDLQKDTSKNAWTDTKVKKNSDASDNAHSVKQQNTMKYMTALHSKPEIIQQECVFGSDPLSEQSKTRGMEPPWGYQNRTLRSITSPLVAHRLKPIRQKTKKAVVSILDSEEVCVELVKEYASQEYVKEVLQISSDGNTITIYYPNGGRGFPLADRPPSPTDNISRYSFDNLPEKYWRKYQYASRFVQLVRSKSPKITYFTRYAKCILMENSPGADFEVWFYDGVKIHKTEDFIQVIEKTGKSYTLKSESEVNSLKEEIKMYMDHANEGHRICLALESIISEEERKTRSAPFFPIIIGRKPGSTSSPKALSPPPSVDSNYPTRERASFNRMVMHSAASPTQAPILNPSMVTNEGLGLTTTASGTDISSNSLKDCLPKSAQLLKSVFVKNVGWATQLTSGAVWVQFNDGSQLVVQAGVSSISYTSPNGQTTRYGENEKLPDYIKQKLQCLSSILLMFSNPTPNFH
T23 sequence (Q6DT37 whole entry): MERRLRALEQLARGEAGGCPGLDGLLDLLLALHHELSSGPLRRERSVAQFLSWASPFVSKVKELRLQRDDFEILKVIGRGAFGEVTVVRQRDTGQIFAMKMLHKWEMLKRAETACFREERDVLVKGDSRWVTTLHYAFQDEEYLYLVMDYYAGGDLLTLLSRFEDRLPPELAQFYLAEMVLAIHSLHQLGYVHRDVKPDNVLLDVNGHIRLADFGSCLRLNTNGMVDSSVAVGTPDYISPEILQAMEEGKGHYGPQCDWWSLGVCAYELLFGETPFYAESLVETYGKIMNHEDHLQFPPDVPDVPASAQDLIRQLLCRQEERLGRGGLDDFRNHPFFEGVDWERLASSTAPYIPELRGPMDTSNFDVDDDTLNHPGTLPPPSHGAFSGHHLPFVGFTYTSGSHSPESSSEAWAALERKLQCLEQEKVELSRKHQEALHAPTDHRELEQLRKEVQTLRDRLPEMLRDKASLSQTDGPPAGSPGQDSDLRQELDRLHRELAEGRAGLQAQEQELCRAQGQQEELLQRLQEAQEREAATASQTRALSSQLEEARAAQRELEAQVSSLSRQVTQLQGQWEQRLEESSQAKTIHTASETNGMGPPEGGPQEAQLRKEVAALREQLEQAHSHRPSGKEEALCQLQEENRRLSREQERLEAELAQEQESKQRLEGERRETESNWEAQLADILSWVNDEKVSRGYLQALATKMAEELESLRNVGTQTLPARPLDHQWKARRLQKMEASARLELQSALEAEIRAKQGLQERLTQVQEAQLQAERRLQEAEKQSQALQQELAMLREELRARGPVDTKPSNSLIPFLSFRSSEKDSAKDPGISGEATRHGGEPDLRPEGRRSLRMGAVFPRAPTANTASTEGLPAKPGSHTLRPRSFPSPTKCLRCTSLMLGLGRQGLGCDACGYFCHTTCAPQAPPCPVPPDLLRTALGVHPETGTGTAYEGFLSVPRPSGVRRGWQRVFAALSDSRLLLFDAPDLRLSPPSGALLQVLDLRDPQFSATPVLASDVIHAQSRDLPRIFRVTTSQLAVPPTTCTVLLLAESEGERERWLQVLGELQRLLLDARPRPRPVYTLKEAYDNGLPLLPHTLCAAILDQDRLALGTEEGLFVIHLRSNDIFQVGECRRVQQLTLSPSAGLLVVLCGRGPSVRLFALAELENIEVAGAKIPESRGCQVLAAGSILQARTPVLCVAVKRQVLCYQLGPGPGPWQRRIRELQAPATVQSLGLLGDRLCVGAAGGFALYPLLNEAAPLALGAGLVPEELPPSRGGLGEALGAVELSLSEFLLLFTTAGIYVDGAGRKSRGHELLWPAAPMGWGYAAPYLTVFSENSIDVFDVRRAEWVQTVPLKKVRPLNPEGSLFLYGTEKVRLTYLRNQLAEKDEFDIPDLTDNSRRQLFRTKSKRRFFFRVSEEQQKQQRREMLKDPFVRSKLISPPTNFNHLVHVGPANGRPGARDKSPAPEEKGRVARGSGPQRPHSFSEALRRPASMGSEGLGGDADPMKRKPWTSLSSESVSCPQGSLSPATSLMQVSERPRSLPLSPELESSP
T18 sequence (Q04771 21-509): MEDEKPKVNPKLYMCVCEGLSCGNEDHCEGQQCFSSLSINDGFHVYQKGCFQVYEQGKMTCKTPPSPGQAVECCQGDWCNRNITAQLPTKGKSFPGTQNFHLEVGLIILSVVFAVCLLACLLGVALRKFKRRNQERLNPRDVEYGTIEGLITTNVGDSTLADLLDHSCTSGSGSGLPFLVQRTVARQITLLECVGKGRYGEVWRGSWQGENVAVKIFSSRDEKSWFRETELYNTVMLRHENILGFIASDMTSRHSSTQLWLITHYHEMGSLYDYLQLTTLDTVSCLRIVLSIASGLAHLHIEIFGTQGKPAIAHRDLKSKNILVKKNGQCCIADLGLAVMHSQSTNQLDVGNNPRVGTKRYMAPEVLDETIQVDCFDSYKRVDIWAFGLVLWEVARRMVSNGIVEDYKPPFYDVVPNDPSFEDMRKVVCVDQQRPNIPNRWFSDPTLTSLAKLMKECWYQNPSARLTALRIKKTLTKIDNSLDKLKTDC
T32 sequence (Q9UKE5 whole entry): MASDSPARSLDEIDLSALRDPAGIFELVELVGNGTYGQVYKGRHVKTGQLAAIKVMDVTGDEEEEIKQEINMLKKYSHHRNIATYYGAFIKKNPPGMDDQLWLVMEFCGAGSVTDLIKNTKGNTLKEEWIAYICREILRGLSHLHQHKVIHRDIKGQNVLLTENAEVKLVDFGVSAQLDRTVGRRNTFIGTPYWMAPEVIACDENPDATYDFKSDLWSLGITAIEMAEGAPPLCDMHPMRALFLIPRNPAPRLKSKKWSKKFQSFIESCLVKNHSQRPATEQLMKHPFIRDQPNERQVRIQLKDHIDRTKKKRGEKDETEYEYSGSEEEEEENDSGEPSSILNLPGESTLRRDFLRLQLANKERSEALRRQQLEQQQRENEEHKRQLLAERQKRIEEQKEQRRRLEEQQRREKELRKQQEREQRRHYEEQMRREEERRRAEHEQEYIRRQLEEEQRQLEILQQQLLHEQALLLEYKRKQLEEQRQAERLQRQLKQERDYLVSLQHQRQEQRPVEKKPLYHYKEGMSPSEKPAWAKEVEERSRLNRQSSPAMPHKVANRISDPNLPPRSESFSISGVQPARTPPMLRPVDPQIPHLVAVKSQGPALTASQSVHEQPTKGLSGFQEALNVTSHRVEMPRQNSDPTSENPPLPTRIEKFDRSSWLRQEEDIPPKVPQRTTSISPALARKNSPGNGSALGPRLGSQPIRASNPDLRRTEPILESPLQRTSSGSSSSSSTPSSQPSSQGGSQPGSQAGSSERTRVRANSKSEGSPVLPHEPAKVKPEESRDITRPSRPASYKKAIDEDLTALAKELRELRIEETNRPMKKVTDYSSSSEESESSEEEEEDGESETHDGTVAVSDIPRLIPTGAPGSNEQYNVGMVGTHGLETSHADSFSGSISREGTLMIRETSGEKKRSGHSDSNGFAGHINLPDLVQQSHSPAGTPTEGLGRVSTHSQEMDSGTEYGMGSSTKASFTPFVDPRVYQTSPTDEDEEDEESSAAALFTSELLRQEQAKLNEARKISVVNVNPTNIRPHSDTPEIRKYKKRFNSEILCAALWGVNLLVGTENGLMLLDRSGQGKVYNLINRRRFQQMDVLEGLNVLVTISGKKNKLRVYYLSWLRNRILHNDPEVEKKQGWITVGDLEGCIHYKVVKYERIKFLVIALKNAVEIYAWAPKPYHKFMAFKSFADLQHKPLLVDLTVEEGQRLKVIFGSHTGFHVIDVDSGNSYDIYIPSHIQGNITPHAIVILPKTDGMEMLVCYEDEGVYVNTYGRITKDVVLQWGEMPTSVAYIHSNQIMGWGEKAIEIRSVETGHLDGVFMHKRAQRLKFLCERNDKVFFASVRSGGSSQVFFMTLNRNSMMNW

For CN(C)C(=O)c1cc2cnc(Nc3ccc(-c4csc5c(=O)cc(N6CCOCC6)oc45)cc3)nc2n1C1CCCC1 [SRX3177], the remaining binding at 1 µM (kinome (kinase panel) [1]) was 60%, the remaining binding at 1 µM (kinome (kinase panel) [2]) was 84% and the remaining binding at 1 µM (kinome (kinase panel) [3]) was 50%. It also gave a remaining binding at 1 µM (kinome (kinase panel) [4]) of 100%, a remaining binding at 1 µM (kinome (kinase panel) [5]) of 91% and a remaining binding at 1 µM (kinome (kinase panel) [6]) of 74%. The remaining binding at 1 µM (kinome (kinase panel) [7]) was 100%, the remaining binding at 1 µM (kinome (kinase panel) [8]) was 23% and the remaining binding at 1 µM (kinome (kinase panel) [9]) was 87%. The remaining binding at 1 µM (kinome (kinase panel) [10]) was 72%, the remaining binding at 1 µM (kinome (kinase panel) [11]) was 22% and the remaining binding at 1 µM (kinome (kinase panel) [12]) was 100%. The remaining binding at 1 µM (kinome (kinase panel) [13]) was 90%, the remaining binding at 1 µM (kinome (kinase panel) [14]) was 89% and the remaining binding at 1 µM (kinome (kinase panel) [15]) was 85%. It also gave a remaining binding at 1 µM (kinome (kinase panel) [16]) of 100%, a remaining binding at 1 µM (kinome (kinase panel) [17]) of 100% and a remaining binding at 1 µM (kinome (kinase panel) [18]) of 84%. For the same compound, the remaining binding at 1 µM (kinome (kinase panel) [19]) was 82%, the remaining binding at 1 µM (kinome (kinase panel) [20]) was 100% and the remaining binding at 1 µM (kinome (kinase panel) [21]) was 65%. For the same compound, the remaining binding at 1 µM (kinome (kinase panel) [22]) was 34%, the remaining binding at 1 µM (kinome (kinase panel) [23]) was 91% and the remaining binding at 1 µM (kinome (kinase panel) [24]) was 96%. It also gave a remaining binding at 1 µM (kinome (kinase panel) [25]) of 79%, a remaining binding at 1 µM (kinome (kinase panel) [26]) of 6.6% and a remaining binding at 1 µM (kinome (kinase panel) [27]) of 99%. It also gave a remaining binding at 1 µM (kinome (kinase panel) [28]) of 100%, a remaining binding at 1 µM (kinome (kinase panel) [29]) of 2.5% and a remaining binding at 1 µM (kinome (kinase panel) [30]) of 100%. It also gave a remaining binding at 1 µM (kinome (kinase panel) [31]) of 89%, a remaining binding at 1 µM (kinome (kinase panel) [32]) of 95% and a remaining binding at 1 µM (kinome (kinase panel) [33]) of 21%.

Reference: article PMC7385619, “A triple action CDK4/6-PI3K-BET inhibitor with augmented cancer cell cytotoxicity” (Cell Discovery, 2020)
